{
  "source": "patent US11884734B2",
  "about": "“Anti-MET antibodies and methods of use thereof” (Celldex Therapeutics, Inc., priority 2015, dated 2024)",
  "key": {"[1]": {"molecular_target": "T1, MET (Homo sapiens, UniProt P08581)", "test": "MET shedding ELISA (sMET-ECD release) in A549 cells", "type": "cell-based", "parameters": "cell lines expressing wild-type MET such as A549 cells; endogenous in cells; host or cells: A549", "settings": "24 hrs, 1 nM of antibody, FIG. 12A"}, "[2]": {"tested_on": "MET, AKT and MAPK phosphorylation", "test": "Akt and MAPK phosphorylation analysis by western blot in A549 cells", "type": "cell-based, human", "settings": "HGF treatment", "procedure": "Western blots were generated from total protein separated on a 10% SDS-PAGE gel. Resolved protein was transferred to nitrocellulose (Bio-Rad), blocked for 1 h with 5% skim milk at 25° C., and then incubated with the indicated antibody overnight at 4° C. The anti-pAkt antibody, anti-pMAPK antibody (Cell Signaling cat. No. 9271 and Cell Signaling cat. No. 4370, respectively), and anti-1234/1235 MET XP antibody (Cell Signaling cat. No. 3077) were used at a concentration of 1 μg/mL in 5% skim milk. Secondary mouse and rabbit antibodies (GE Healthcare) were used at a 1:5000 dilution for 1 h at 25° C. SuperSignal® West Picto Chemiluminescent HRP Substrate (Thermo Scientific cat. No. 34078) was used as directed."}, "[3]": {"tested_on": "U87MG tumor cells", "test": "U87MG orthotopic mouse model (bioluminescence)", "type": "in vivo", "settings": "25 mg/kg; compared with control chimeric IgG1 anti-KLH antibody", "procedure": "The ability of the anti-MET antibodies to inhibit tumor growth in vivo is assessed as described in Sections 6.2.1.3, 6.2.1.4, and 6.2.1.5. […] Treatment was performed biweekly, every three to four days, for seven weeks."}, "[4]": {"molecular_target": "T2, MET (Homo sapiens, UniProt P08581, DEL964-1010)", "T2 construct": "In a non-small-cell lung cancer cell line H596, a functional MET protein is expressed without the 47 amino acids encoded by exon 14; endogenous in cells; host or cells: H596 (NSCLC / adenosquamous carcinoma)", "test": "MET degradation in H596 cells (exon 14 deleted MET)", "type": "cell-based", "settings": "1 nM HGF, 24 hrs", "text": "(§1) MET exon 14 mutations have been reported in many cancers (The Cancer Genome Atlas Research Network, 2014, Nature, 511(7511):543-550; Frampton et al., 2015, Cancer Discov. 5(8):850-859). MET exon 14 mutations confer reduced HGF-induced receptor degradation. Deletion of exon 14 (Leu964-Asp1010) removes the Tyr1003 site necessary for Cbl binding leading to a substantial decrease HGF-induced receptor degradation as previously reported (Kong-Beltram et al., 2006, Cancer Res. 66(1):283-289). […] In a non-small-cell lung cancer cell line H596, a functional MET protein is expressed without the 47 amino acids encoded by exon 14 (Kong-Beltram et al., 2006, Cancer Res. 66(1):283-289)."}, "[5]": {"molecular_target": "T1, MET", "test": "HGF-induced MET degradation in U87MG cells", "type": "cell-based", "settings": "U87MG cells (wild-type MET)", "text": "as §1"}, "[6]": {"molecular_target": "T1, MET", "test": "HGF-induced MET degradation in A549 cells", "type": "cell-based", "parameters": "cell lines expressing wild-type MET such as A549 and U87MG cells; endogenous in cells; host or cells: A549", "settings": "A549 cells (wild-type MET)", "text": "as §1"}, "[7]": {"molecular_target": "T1, MET", "test": "MET ubiquitination in A549 cells (immunoprecipitation/immunoblot)", "type": "cell-based", "parameters": "cell lines expressing wild-type MET such as A549 and U87MG cells; endogenous in cells; host or cells: A549", "settings": "1 nM, 15 min, FIG. 12B", "text": "Whether the anti-MET antibodies promote MET ubiquitination and degradation was investigated next. […] Cell lysates were precipitated with anti-ubiquitin antibody conjugated agarose (Santa Cruz) followed by immunoblotting with anti-MET antibody (Cell Signaling Technology). […] Thus, these antibodies promote receptor degradation utilizing the ubiquitination mechanism instead of protease-mediated shedding. This is in contrast with membrane protease-mediated receptor shedding observed previously with antibodies such as DN30 (Schleter, 2010, J. Biol. Chem. 285(34):26335-26340)."}},
  "data": [
    {"compound": "CCCCCCCCCCCCCC(=O)O[C@@H]1[C@@H](C)[C@@]2(O)[C@@H](C=C(CO)C[C@]3(O)C(=O)C(C)=C[C@@H]23)[C@@H]2C(C)(C)[C@]12OC(C)=O", "note": "[PMA, phorbol 12-myristate 13-acetate]", "values": [
      {"measurement": "MET shedding (release of sMET-ECD into culture medium)", "setting": "[1]", "result": "induced substantial MET shedding"}
    ]},
    {"compound": "C[C@@H](Oc1cc(-c2cnn(C3CCNCC3)c2)cnc1N)c1c(Cl)ccc(F)c1Cl", "note": "[crizotinib]", "values": [
      {"measurement": "MET protein levels, western blot", "setting": "[2]", "result": "not observed"},
      {"measurement": "activation of MET (phosphorylated MET), western blot", "setting": "[2]", "result": "inhibited activation of MET"},
      {"measurement": "activation of downstream signaling components Akt and MAPK (phosphorylation), western blot", "setting": "[2]", "result": "reduces the activation of downstream signaling components Akt and MAPK"},
      {"measurement": "tumor growth (bioluminescence)", "setting": "[3]", "result": "resulted in similar tumor growth"}
    ]},
    {"compound": "HGF: MET ligand used to stimulate cells", "values": [
      {"measurement": "receptor degradation", "setting": "[4]", "result": 30, "unit": "%"},
      {"measurement": "receptor degradation", "setting": "[5]", "result": "approximately 80%"},
      {"measurement": "receptor degradation", "setting": "[6]", "result": "approximately 80%"},
      {"measurement": "MET receptor ubiquitination", "setting": "[7]", "result": "induced potent receptor ubiquitination"}
    ]}
  ]
}
